The term IC50 denotes the concentration needed to halve the response being measured. High values mean weaker potency, low ones greater potency.

The target in assay [1] is T1, human clotting factor VIIa (Homo sapiens, UniProt P08709).
T1 construct: a human clotting factor VIIa (Factor VIIa) purified sample; purchased Enzyme Research Laboratories (Factor VIIa); Calbiochem (tissue factor) HFVIIa (Factor VIIa); 612151 (tissue factor)
In words: Inhibitory activity against clotting factor VIIa (chromogenic substrate Spectrozyme FVIIa, with tissue factor). It counts as biochemical. The settings on record: 10 nmol/L TF, 5 nmol/L Factor VIIa, room temperature 40 minutes, 405 nm. On the procedure:
Dimethylsulfoxide (DMSO) solutions were prepared with compounds of the invention at concentration of 10 mmol/L (10 mmol/L compound solutions).
One packet of tris-hydroxymethylaminomethane-preset (Tris Preset) (product of SIGMA Corp., Catalog No. T8293), 8.8 g of sodium chloride (NaCl) and 1 g of bovine serum albumin (BSA) were dissolved in 1 L of water to prepare a Tris-BSA buffer (100 mmol/L Tris, 0.15 mol/L NaCl, 0.1% BSA, pH 7.4).
The Tris-BSA buffer (180 μL) was added to the aforementioned 10 mmol/L compound solution (20 μL). A 10-fold dilution series was prepared for this mixture using the aforementioned Tris-BSA buffer, and solutions with the compound at concentrations of 1.0 mmol/L, 100, 10, 1, 0.1, 0.01 and 0.001 μmol/L were prepared (1.0 mmol-0.001 μmol/L compound solutions).
As a control, a solution was prepared by 10-fold dilution of DMSO with the Tris-BSA buffer (control 10% solution).
After dissolving one packet of Tris preset, NaCl (8.8 g) and BSA (1 g) in water (about 900 mL), there were added 1 mol/L aqueous calcium chloride (CaCl2) (15 mL) and 1 mg/mL aqueous cephalin (30 mL), and the total volume was brought to 1 L by adding water. To this solution was added a human tissue factor (TF) sample (product of Calbiochem, Catalog No. 612151) (450 μg) to a TF sample concentration of 10 nmol/L, and then a human clotting factor VIIa (Factor VIIa) purified sample (product of Enzyme Research Laboratories, Catalog No. HFVIIa) (250 μg) was added to a Factor VIIa purified sample concentration of 5 nmol/L, to prepare an enzyme solution (100 mmol/L Tris-HCl, 0.15 mol/L NaCl, 15 mmol/L CaCl2, 30 μg/mL cephalin, 1 mg/mL BSA, 10 nmol/L TF, 5 nmol/L Factor VIIa).
To 110 μL of this enzyme solution was added 15 μL of each of the 1.0 mmol-0.001 μmol/L compound solutions, and then 25 μL of a 1.0 mmol/L synthetic chromogenic substrate solution (Spectrozyme FVIIa) was added and the mixture was allowed to stand at room temperature for 40 minutes. Next, the amount of 4-nitroanilide released into the solution was quantitated by spectrophotometry (405 nm).
A control measurement was conducted in the same manner, using the control 10% solution instead of the compound solution.
This measurement yielded the enzyme reaction inhibition in the presence of 100 μmol/L to 0.1 nmol/L of each compound of the invention. The enzyme reaction inhibition at each compound concentration was subjected to non-linear regression analysis, and the IC50 value for inhibitory activity of each compound against clotting factor VIIa was calculated.

Another assay deals with healthy human plasma. In words: Blood clotting time prolongation (prothrombin time, steel ball method). The settings on record: human thromboplastin, 37° C.

The structures appear in SMILES notation.

T1 sequence (P08709 213-466 limits assumed): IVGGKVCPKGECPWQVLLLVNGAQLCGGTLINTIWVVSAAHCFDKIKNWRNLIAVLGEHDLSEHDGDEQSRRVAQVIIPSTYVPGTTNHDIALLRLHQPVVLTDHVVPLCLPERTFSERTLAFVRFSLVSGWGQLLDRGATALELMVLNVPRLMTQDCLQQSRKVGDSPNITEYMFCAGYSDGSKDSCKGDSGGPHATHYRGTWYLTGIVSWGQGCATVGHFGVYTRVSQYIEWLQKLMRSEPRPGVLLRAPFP
T1 sequence (P08709 61-212 limits assumed): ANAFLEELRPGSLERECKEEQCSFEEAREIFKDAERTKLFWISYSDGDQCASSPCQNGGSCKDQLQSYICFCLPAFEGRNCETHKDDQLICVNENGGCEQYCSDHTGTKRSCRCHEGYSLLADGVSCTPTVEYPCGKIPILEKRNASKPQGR
T1 sequence (P13726 33-295 partner): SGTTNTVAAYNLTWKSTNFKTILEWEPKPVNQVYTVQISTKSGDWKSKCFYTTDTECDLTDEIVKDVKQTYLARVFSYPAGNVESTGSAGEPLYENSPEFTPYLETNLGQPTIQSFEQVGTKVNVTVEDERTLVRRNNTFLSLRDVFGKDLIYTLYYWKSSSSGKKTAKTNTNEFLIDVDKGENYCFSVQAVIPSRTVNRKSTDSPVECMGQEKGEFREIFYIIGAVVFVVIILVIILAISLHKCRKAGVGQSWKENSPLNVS

In assay [1], `CCOc1cc(C(Nc2ccc(C(=N)N)cc2)C(=O)NNC(=O)c2cnccc2C)ccc1OCCOC.O=C(O)C(F)(F)F` (stereo not shown) [Example 76, 4-(1-(3-Ethoxy-4-(2-methoxyethoxy)phenyl)-2-(N′-(4-methylpyridine-3-carbonyl)hydrazino)-2-oxoethylamino)benzamidine trifluoroacetate] had an IC50 of 169 nM. The “h PT × 1.1: compound concentration which produced 10% prolongation compared to the control clotting time” value in the assay on healthy human plasma was determined as 0.63 µM.
In the case of `CCOc1cc(C(Nc2ccc(C(=N)N)cc2)C(=O)NNC(=O)c2ccncc2Cl)ccc1OCCOC.O=C(O)C(F)(F)F` (stereo not shown) [Example 78, 4-(2-(N′-(3-Chloropyridine-4-carbonyl)hydrazino)-1-(3-ethoxy-4-(2-methoxyethoxy)phenyl)-2-oxoethylamino)benzamidine trifluoroacetate], half-maximal inhibition in assay [1] (IC50) required 49 nM. Further, in the assay on healthy human plasma, the “h PT × 1.1: compound concentration which produced 10% prolongation compared to the control clotting time” value was 0.42 µM.
Compound `CCCOc1cc(OC)cc(C(Nc2ccc(C(=N)N)cc2)C(=O)NNC(=O)c2ccncc2)c1F.O=C(O)C(F)(F)F` (stereo not shown) [Example 81, 4-{1-(2-Fluoro-5-methoxy-3-propoxyphenyl)-2-oxo-2-[N′-(pyridine-4-carbonyl)hydrazino]ethylamino}benzamidine trifluoroacetate] had an IC50 in assay [1] of 78 nM. Besides, the “h PT × 1.1: compound concentration which produced 10% prolongation compared to the control clotting time” value in the assay on healthy human plasma is 1.20 µM.
For `CCOc1cc(C(Nc2ccc(C(=N)N)cc2)C(=O)NNc2ccccc2C(=O)O)ccc1OCC(=O)N(C)C.O=C(O)C(F)(F)F` (stereo not shown) [Example X-246, 2-[N′-[2-(4-Carbamimidoylphenylamino)-2-(4-dimethylcarbamoylmethoxy-3-ethoxyphenyl)acetyl]hydrazino]benzoic acid trifluoroacetate] the same measures were 165 nM and 0.90 µM.
In turn, `CCOc1cc(C(Nc2ccc(C(=N)N)cc2)C(=O)NNC(=O)c2ccncc2F)ccc1OCC(C)(C)N.O=C(O)C(F)(F)F` (stereo not shown) [Example X-248, 4-[1-[4-(2-Amino-2-methylpropoxy)-3-ethoxyphenyl]-2-[N′-(3-fluoropyridine-4-carbonyl)-hydrazino]-2-oxoethylamino]benzamidine trifluoroacetate] returned an IC50 in assay [1] of 173 nM. Besides, the “h PT × 1.1: compound concentration which produced 10% prolongation compared to the control clotting time” value in the assay on healthy human plasma came to 0.83 µM.
For `CCOc1cc(C(Nc2ccc(C(=N)N)cc2)C(=O)NNc2ccccc2C(=O)O)ccc1OC(C)CN(C)C.O=C(O)C(F)(F)F` (stereo not shown) [Example X-251, 2-(N′-(2-(4-Carbamimidoylphenylamino)-2-(4-(2-dimethylamino-1-methylethoxy)-3-ethoxyphenyl)acetyl)hydrazino)benzoic acid trifluoroacetate], it took 166 nM to reach half-maximal inhibition in assay [1] (IC50). In addition, the “h PT × 1.1: compound concentration which produced 10% prolongation compared to the control clotting time” value in the assay on healthy human plasma came to 0.68 µM.
`CCOc1cc(C(Nc2ccc(C(=N)N)cc2)C(=O)NNC(=O)c2ccccc2Cl)ccc1OC(C)CN(C)C.O=C(O)C(F)(F)F` (stereo not shown) [Example X-252, 4-(2-(N′-(2-Chlorobenzoyl)hydrazino)-1-(4-(2-dimethylamino-1-methylethoxy)-3-ethoxyphenyl)-2-oxoethylamino)benzamidine trifluoroacetate] registered an IC50 in assay [1] of 98 nM. In addition, the “h PT × 1.1: compound concentration which produced 10% prolongation compared to the control clotting time” value in the assay on healthy human plasma came to 0.76 µM.
Compound `CCOc1cc(C(Nc2ccc(C(=N)N)cc2)C(=O)NNC(=O)c2ccncc2F)ccc1OC(C)CN(C)C.O=C(O)C(F)(F)F` (stereo not shown) [Example X-254, 4-(1-(4-(2-Dimethylamino-1-methylethoxy)-3-ethoxyphenyl)-2-(N′-(3-fluoropyridine-4-carbonyl)hydrazino)-2-oxoethylamino)benzamidine trifluoroacetate] came in with an IC50 in assay [1] of 50 nM. Further, the “h PT × 1.1: compound concentration which produced 10% prolongation compared to the control clotting time” value in the assay on healthy human plasma amounted to 0.59 µM.

(Values after patent US20100240654A1, “HYDRAZIDE DERIVATIVES” (priority 2004, published 2010).)
